# From US20250283040A1, “Methods to Expand a T Regulatory Cell Master Cell Bank” (The Trustees of the University of Pennsylvania, priority 2010, published 2025)
# Values joined by “and” are separate entries in the source; they are usually repeats but may differ in a detail not shown here. Equal entries are not always repeated.
# What was measured:
# Assay type in all cases: cell-based, human
# PB nTreg [1] = test: Cell size and viability of nTreg cultures by ViCell; conditions: sort-purified nTregs stimulated with KT64/86 cells; Rapamycin 109 nM
# Protocol: (§1) Where indicated, Rapamycin (Rapammune, Wyeth-Ayerst) at 109 nM was added on day 0 and with subsequent media supplementation. Cell size and viability were determined by ViCell (Beckman Coulter).
# PB nTreg [2] = test: Ex vivo expansion of PB nTreg cultures (fold expansion); conditions: sort-purified nTregs, first stimulation with KT64/86 cells; Rapamycin 109 nM
# Protocol: Experiments were designed to expand Tregs isolated from adult peripheral blood. Tregs were isolated by a two step procedure in which CD4 cells were first enriched by depleting CD8, −14, and −19+ cells with GMP-grade mAb coated microbeads, followed by positive selection of CD25++ cells using GMP-grade anti-CD25 microbeads (either 75μl/2×10^8 cells, Miltenyi). Treg were subsequently expanded in vitro by repeated stimulation with CD3/28 beads or KT64/86 loaded with anti-CD3 antibody. In addition, the expansion scheme involved expanding Tregs in the presence of Rapamycin (109 nM) and restimulation based upon cell size.
# For all experiments, non-mobilized peripheral blood Leukapheresis products were collected from normal adult volunteers using FDA approved/cleared apheresis instruments. Written informed consent was obtained from all subjects. nTreg were purified using GMP magnetic beads or by sorting. […]
# as §1
# nTreg cultures = test: Intracellular cytokine staining after PMA/Ionomycin
# Protocol: Fresh or frozen nTreg were cultured in supplemented X-Vivo 15 for 4 hours±PMA ([…]) and Ionomycin (1 μg/ml) in the presence of Brefeldin A (100 ng/ml) (all Sigma). Frozen/thawed samples were cultured for 1 hour at 37° C. prior to re-stimulation. Cells were then harvested and stained for CD4, 25, Foxp3 and cytokine (IL-2, IL-4, IL-17, and IFNγ) or Granzyme B using the standard Foxp3 intracellular staining kit.
# [3] = sort-purified nTreg re-stimulated with KT64/86
smiles,measurement,setting,value
CO[C@H]1C[C@@H]2CC[C@@H](C)[C@@](O)(O2)C(=O)C(=O)N2CCCC[C@H]2C(=O)O[C@H]([C@H](C)C[C@@H]2CC[C@@H](O)[C@H](OC)C2)CC(=O)[C@H](C)/C=C(\C)[C@@H](O)[C@@H](OC)C(=O)[C@H](C)C[C@H](C)/C=C/C=C/C=C/1C [Rapamycin],Peak cell size with Rapamycin,PB nTreg [1],9.9 µm
same,Expansion with Rapamycin,PB nTreg [2],55 fold
same,"% of PMA/ionomycin stimulated cells secreting IL-2, with Rapamycin",nTreg cultures; [3],≤ 3%
same,"% of cells secreting IFNγ, with Rapamycin",nTreg cultures; [3],≤ 2%
same,"% IL-4+ cells, start of the increase with successive re-stimulations",nTreg cultures; with Rapamycin,8±2%
same,% IL-4+ cells after the last (fourth) re-stimulation,"nTreg cultures; with Rapamycin, Foxp3+ and −",58±17% and > 50%
